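Method: 48-hour compound exposure of cells in 96-well plates, five concentrations, linear interpolation of endpoints. GI50 marks 50% less growth. The concentration for full growth arrest is given as TGI.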
Legend:
Test in all cases: growth of human tumour cells (NCI), 48 h
SW-620 colon = test system: SW-620 colon
HOP-62 NSCLC = test system: HOP-62 NSCLC
HS 578T breast = test system: HS 578T breast
A498 renal = test system: A498 renal
MOLT-4 leukemia = test system: MOLT-4 leukemia
HCC-2998 colon = test system: HCC-2998 colon
K-562 leukemia = test system: K-562 leukemia
UACC-62 melanoma = test system: UACC-62 melanoma
SK-MEL-5 melanoma = test system: SK-MEL-5 melanoma
SNB-19 CNS = test system: SNB-19 CNS
786-0 renal = test system: 786-0 renal
PC-3 prostate = test system: PC-3 prostate
SNB-75 CNS = test system: SNB-75 CNS
U251 CNS = test system: U251 CNS
SN12C renal = test system: SN12C renal
OVCAR-3 ovarian = test system: OVCAR-3 ovarian
A549 NSCLC = test system: A549 NSCLC
DU-145 prostate = test system: DU-145 prostate
RPMI-8226 leukemia = test system: RPMI-8226 leukemia
NCI-H23 lung = test system: NCI-H23 lung
SF-268 CNS = test system: SF-268 CNS
MALME-3M melanoma = test system: MALME-3M melanoma
CAKI-1 renal = test system: CAKI-1 renal
MDA-MB-435 = test system: MDA-MB-435
CCRF-CEM leukemia = test system: CCRF-CEM leukemia
EKVX NSCLC = test system: EKVX NSCLC
HT29 colon = test system: HT29 colon
HCT-15 colon = test system: HCT-15 colon
MCF7 breast = test system: MCF7 breast
NCI/ADR-RES ovarian = test system: NCI/ADR-RES ovarian
OVCAR-4 ovarian = test system: OVCAR-4 ovarian
OVCAR-8 ovarian = test system: OVCAR-8 ovarian
M14 melanoma = test system: M14 melanoma
SK-MEL-28 melanoma = test system: SK-MEL-28 melanoma
TK-10 renal = test system: TK-10 renal
ACHN renal = test system: ACHN renal
LOX IMVI melanoma = test system: LOX IMVI melanoma
MDA-MB-231 breast = test system: MDA-MB-231 breast
IGROV1 ovarian = test system: IGROV1 ovarian
SF-295 CNS = test system: SF-295 CNS
NCI-H522 lung = test system: NCI-H522 lung
NCI-H460 lung = test system: NCI-H460 lung
HCT-116 colon = test system: HCT-116 colon
SK-OV-3 ovarian = test system: SK-OV-3 ovarian
KM12 colon = test system: KM12 colon
HL-60(TB) leukemia = test system: HL-60(TB) leukemia
SR leukemia = test system: SR leukemia
RXF 393 renal = test system: RXF 393 renal
SK-MEL-2 melanoma = test system: SK-MEL-2 melanoma
NCI-H226 lung = test system: NCI-H226 lung
UACC-257 melanoma = test system: UACC-257 melanoma
SF-539 CNS = test system: SF-539 CNS
COLO 205 colon = test system: COLO 205 colon
T-47D breast = test system: T-47D breast
UO-31 renal = test system: UO-31 renal
OVCAR-5 ovarian = test system: OVCAR-5 ovarian
BT-549 breast = test system: BT-549 breast
HOP-92 NSCLC = test system: HOP-92 NSCLC

Compound: NCCN1CC2CCC(CC2)C1
- TGI (SW-620 colon): > 10 µM
- TGI (HOP-62 NSCLC): > 10 µM
- TGI (HS 578T breast): > 10 µM
- TGI (A498 renal): > 10 µM
- TGI (MOLT-4 leukemia): > 10 µM
- TGI (HCC-2998 colon): > 10 µM
- TGI (K-562 leukemia): > 10 µM
- TGI (UACC-62 melanoma): > 10 µM
- TGI (SK-MEL-5 melanoma): > 10 µM
- TGI (SNB-19 CNS): > 10 µM
- TGI (786-0 renal): > 10 µM
- TGI (PC-3 prostate): > 10 µM
- TGI (SNB-75 CNS): > 10 µM
- TGI (U251 CNS): > 10 µM
- TGI (SN12C renal): > 10 µM
- TGI (OVCAR-3 ovarian): > 10 µM
- TGI (A549 NSCLC): > 10 µM
- TGI (DU-145 prostate): > 10 µM
- TGI (RPMI-8226 leukemia): > 10 µM
- TGI (NCI-H23 lung): > 10 µM
- TGI (SF-268 CNS): > 10 µM
- TGI (MALME-3M melanoma): > 10 µM
- TGI (CAKI-1 renal): > 10 µM
- TGI (MDA-MB-435): > 10 µM
- TGI (CCRF-CEM leukemia): > 10 µM
- TGI (EKVX NSCLC): > 10 µM
- TGI (HT29 colon): > 10 µM
- TGI (HCT-15 colon): > 10 µM
- TGI (MCF7 breast): > 10 µM
- TGI (NCI/ADR-RES ovarian): > 10 µM
- TGI (OVCAR-4 ovarian): > 10 µM
- TGI (OVCAR-8 ovarian): > 10 µM
- TGI (M14 melanoma): > 10 µM
- TGI (SK-MEL-28 melanoma): > 10 µM
- TGI (TK-10 renal): > 10 µM
- TGI (ACHN renal): > 10 µM
- TGI (LOX IMVI melanoma): > 10 µM
- TGI (MDA-MB-231 breast): > 10 µM
- TGI (IGROV1 ovarian): > 10 µM
- TGI (SF-295 CNS): > 10 µM
- TGI (NCI-H522 lung): > 10 µM
- TGI (NCI-H460 lung): > 10 µM
- TGI (HCT-116 colon): > 10 µM
- TGI (SK-OV-3 ovarian): > 10 µM
- TGI (KM12 colon): > 10 µM
- TGI (HL-60(TB) leukemia): > 10 µM
- TGI (SR leukemia): > 10 µM
- TGI (RXF 393 renal): > 10 µM
- TGI (SK-MEL-2 melanoma): > 10 µM
- TGI (NCI-H226 lung): > 10 µM
- TGI (UACC-257 melanoma): > 10 µM
- TGI (SF-539 CNS): > 10 µM
- TGI (COLO 205 colon): > 10 µM
- TGI (T-47D breast): > 10 µM
- TGI (UO-31 renal): > 10 µM

Compound: CNCCCNc1nc2ccccc2c2c(=O)c3cc(Cl)ccc3sc12
- GI50 (SW-620 colon): 1.62 µM
- TGI (SW-620 colon): 3.09 µM
- GI50 (HOP-62 NSCLC): 1.13 µM
- TGI (HOP-62 NSCLC): 2.44 µM
- GI50 (HS 578T breast): 1.72 µM
- TGI (HS 578T breast): 4.31 µM
- GI50 (A498 renal): 2.55 µM
- TGI (A498 renal): 7.41 µM
- GI50 (HCC-2998 colon): 1.69 µM
- TGI (HCC-2998 colon): 3.34 µM
- GI50 (UACC-62 melanoma): 1.62 µM
- TGI (UACC-62 melanoma): 3.04 µM
- GI50 (OVCAR-5 ovarian): 1.62 µM
- TGI (OVCAR-5 ovarian): 3.03 µM
- GI50 (SK-MEL-5 melanoma): 2.13 µM
- TGI (SK-MEL-5 melanoma): 5.25 µM
- GI50 (786-0 renal): 1.71 µM
- TGI (786-0 renal): 3.2 µM
- GI50 (PC-3 prostate): 1.52 µM
- TGI (PC-3 prostate): 3.02 µM
- GI50 (SNB-75 CNS): 1.31 µM
- TGI (SNB-75 CNS): 2.61 µM
- GI50 (SN12C renal): 1.54 µM
- TGI (SN12C renal): 2.93 µM
- GI50 (OVCAR-3 ovarian): 1.61 µM
- TGI (OVCAR-3 ovarian): 3.08 µM
- GI50 (A549 NSCLC): 1.55 µM
- TGI (A549 NSCLC): 3.04 µM
- GI50 (DU-145 prostate): 1.74 µM
- TGI (DU-145 prostate): 3.14 µM
- GI50 (NCI-H23 lung): 1.61 µM
- TGI (NCI-H23 lung): 3.18 µM
- GI50 (SF-268 CNS): 1.5 µM
- TGI (SF-268 CNS): 3.01 µM
- GI50 (MALME-3M melanoma): 1.87 µM
- TGI (MALME-3M melanoma): 3.62 µM
- GI50 (CAKI-1 renal): 1.4 µM
- TGI (CAKI-1 renal): 2.7 µM
- GI50 (MDA-MB-435): 1.76 µM
- TGI (MDA-MB-435): 3.19 µM
- GI50 (BT-549 breast): 13.3 µM
- TGI (BT-549 breast): 40.5 µM
- GI50 (HT29 colon): 1.67 µM
- TGI (HT29 colon): 3.13 µM
- GI50 (HCT-15 colon): 1.5 µM
- TGI (HCT-15 colon): 2.92 µM
- GI50 (SK-MEL-28 melanoma): 1.82 µM
- TGI (SK-MEL-28 melanoma): 3.34 µM
- GI50 (TK-10 renal): 1.99 µM
- TGI (TK-10 renal): 3.48 µM
- GI50 (ACHN renal): 1.51 µM
- TGI (ACHN renal): 2.89 µM
- GI50 (MDA-MB-231 breast): 1.33 µM
- TGI (MDA-MB-231 breast): 2.67 µM
- GI50 (HOP-92 NSCLC): 0.935 µM
- TGI (HOP-92 NSCLC): 2.81 µM
- GI50 (IGROV1 ovarian): 1.51 µM
- TGI (IGROV1 ovarian): 3.18 µM
- GI50 (SF-295 CNS): 1.74 µM
- TGI (SF-295 CNS): 3.27 µM
- GI50 (NCI-H460 lung): 1.61 µM
- TGI (NCI-H460 lung): 3.06 µM
- GI50 (SK-OV-3 ovarian): 1.47 µM
- TGI (SK-OV-3 ovarian): 2.89 µM
- GI50 (KM12 colon): 1.48 µM
- TGI (KM12 colon): 2.89 µM
- GI50 (SK-MEL-2 melanoma): 1.75 µM
- TGI (SK-MEL-2 melanoma): 3.43 µM
- GI50 (NCI-H226 lung): 4.58 µM
- TGI (NCI-H226 lung): 47.1 µM
- GI50 (UACC-257 melanoma): 1.8 µM
- TGI (UACC-257 melanoma): 3.31 µM
- GI50 (SF-539 CNS): 1.68 µM
- TGI (SF-539 CNS): 3.12 µM
- GI50 (COLO 205 colon): 1.88 µM
- TGI (COLO 205 colon): 3.54 µM
- GI50 (UO-31 renal): 1.16 µM
- TGI (UO-31 renal): 2.42 µM

Compound: C=CCN1C(=O)CS/C1=N/NC(=O)C(O)(c1ccccc1)c1ccccc1
- TGI (SW-620 colon): > 10 µM
- TGI (HOP-62 NSCLC): > 10 µM
- TGI (MOLT-4 leukemia): > 10 µM
- TGI (K-562 leukemia): > 10 µM
- TGI (UACC-62 melanoma): > 10 µM
- TGI (SK-MEL-5 melanoma): > 10 µM
- TGI (786-0 renal): > 10 µM
- TGI (SNB-75 CNS): > 10 µM
- TGI (U251 CNS): > 10 µM
- TGI (A549 NSCLC): > 10 µM
- TGI (RPMI-8226 leukemia): > 10 µM
- TGI (NCI-H23 lung): > 10 µM
- TGI (SF-268 CNS): > 10 µM
- TGI (MALME-3M melanoma): > 10 µM
- TGI (CAKI-1 renal): > 10 µM
- TGI (MDA-MB-435): > 10 µM
- TGI (CCRF-CEM leukemia): > 10 µM
- TGI (MCF7 breast): > 10 µM
- TGI (NCI/ADR-RES ovarian): > 10 µM
- TGI (OVCAR-4 ovarian): > 10 µM
- TGI (M14 melanoma): > 10 µM
- TGI (SK-MEL-28 melanoma): > 10 µM
- TGI (ACHN renal): > 10 µM
- TGI (HOP-92 NSCLC): > 10 µM
- TGI (IGROV1 ovarian): > 10 µM
- TGI (NCI-H460 lung): > 10 µM
- TGI (SK-OV-3 ovarian): > 10 µM
- TGI (HL-60(TB) leukemia): > 10 µM
- TGI (SR leukemia): > 10 µM
- TGI (RXF 393 renal): > 10 µM
- TGI (SK-MEL-2 melanoma): > 10 µM
- TGI (COLO 205 colon): > 10 µM
- TGI (T-47D breast): > 10 µM
